The values that follow come from patent US6093838A, “Amines substituted with a dihydro-benzofuranyl or with a dihydro-isobenzofuranyl group, an aryl or heteroaryl group and an alkyl group, having retinoid-like biological activity” (Allergan Sales, Inc., priority 1999, dated 2000).

Assay [1] concerns the target T1, RXRβ (Mus musculus, UniProt P28704).
T1 construct: expressed in transfected cells
T1 sequence (P28704 1-520): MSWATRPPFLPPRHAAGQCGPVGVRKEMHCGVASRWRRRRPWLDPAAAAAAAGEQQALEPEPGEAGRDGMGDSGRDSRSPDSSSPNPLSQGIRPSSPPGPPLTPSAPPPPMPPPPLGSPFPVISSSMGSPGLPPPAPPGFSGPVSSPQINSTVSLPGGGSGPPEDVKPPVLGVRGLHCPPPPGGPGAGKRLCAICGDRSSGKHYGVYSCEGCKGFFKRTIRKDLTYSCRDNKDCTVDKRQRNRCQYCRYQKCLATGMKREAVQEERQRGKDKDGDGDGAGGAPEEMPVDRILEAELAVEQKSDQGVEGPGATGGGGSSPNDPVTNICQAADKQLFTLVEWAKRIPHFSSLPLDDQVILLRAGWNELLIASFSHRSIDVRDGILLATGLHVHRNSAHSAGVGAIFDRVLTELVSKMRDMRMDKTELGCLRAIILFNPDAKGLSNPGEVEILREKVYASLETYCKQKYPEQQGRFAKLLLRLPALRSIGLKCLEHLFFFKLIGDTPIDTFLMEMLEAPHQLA
Description: holoreceptor transactivation assay, RXRβ. The conditions noted are these: for EC50: holoreceptor transactivation, RXRβ, read-out: RXR Trans. EC50 β; for Emax: relative to 10^-6 M cyclopropyl penta-2,4-dienoic acid reference (RXRs), read-out: % efficacy (RXRβ transactivation). Type of assay: cell-based. An excerpt: (§1) Other assays described below, measure the ability of the compounds of the present invention to bind to, and/or activate various retinoid receptor subtypes. When in these assays a compound binds to a given receptor subtype and activates the transcription of a reporter gene through that subtype, then the compound is considered an agonist of that receptor subtype. […] In the below described assays the ability of the compounds to bind to RARα, RARβ, RARγ, RXRα, RXRβ and RXRγ receptors, and the ability or inability of the compounds to activate transcription of a reporter gene through these receptor subtypes can be tested. […] However, some of the compounds of the invention may behave as retinoid antagonists or partial antagonists and/or as inverse agonists. Because of the complex distribution of the different retinoid receptors in various organs of the mammalian body partial agonists and partial antagonists and compounds which have the characteristics of both may lend themselves to particularly useful therapeutic applications and may avoid serious side effects of conventional retinoid drugs.
(§2) A holoreceptor transactivation assay and a ligand binding assay which measure the antagonist/agonist like activity of the compounds of the invention, or their ability to bind to the several retinoid receptor subtypes, respectively, are described in published PCT Application No. WO WO93/11755 (particularly on pages 30-33 and 37-41) published on Jun. 24, 1993, the specification of which is also incorporated herein by reference. A detailed experimental procedure for holoreceptor transactivations has been described by Heyman et al. Cell 68, 397-406, (1992); Allegretto et al. J. Biol. Chem. 268, 26625-26633, and Mangelsdorf et al. The Retinoids: Biology, Chemistry and Medicine, pp 319-349, Raven Press Ltd., New York, which are expressly incorporated herein by reference. The results obtained in this assay are expressed in EC50 numbers, as they are also in the chimeric receptor transactivation assay. The results of ligand binding assay are expressed in Kd numbers. (See Cheng et al. Biochemical Pharmacology Vol. 22 pp 3099-3108, expressly incorporated herein by reference.)
(§3) Table 1 discloses the activity of certain exemplary compounds of the invention in the above-described chimeric receptor transactivation assay, holoreceptor transactivation assay and a ligand binding assays. Particularly, the transactivation data pertaining to RAR receptors were obtained in the chimeric assay, and the data pertaining to transactivation of RXR receptors were obtained in the holoreceptor transactivation assay.

The target in assay [2] is T2, RXRγ (Mus musculus, UniProt P28705).
T2 construct: expressed in transfected cells
T2 sequence (P28705 1-463): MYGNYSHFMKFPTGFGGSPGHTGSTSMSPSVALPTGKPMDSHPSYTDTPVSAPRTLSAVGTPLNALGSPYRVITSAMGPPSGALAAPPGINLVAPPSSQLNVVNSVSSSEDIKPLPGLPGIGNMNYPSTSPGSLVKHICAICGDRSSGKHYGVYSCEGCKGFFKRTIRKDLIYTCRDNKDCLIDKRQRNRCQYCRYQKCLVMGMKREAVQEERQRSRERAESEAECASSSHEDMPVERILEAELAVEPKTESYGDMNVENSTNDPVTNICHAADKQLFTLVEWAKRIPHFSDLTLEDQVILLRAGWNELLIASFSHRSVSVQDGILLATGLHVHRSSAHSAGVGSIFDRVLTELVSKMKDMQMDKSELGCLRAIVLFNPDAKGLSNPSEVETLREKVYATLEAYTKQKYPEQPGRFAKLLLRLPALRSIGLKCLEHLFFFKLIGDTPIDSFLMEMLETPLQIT
The experiment in a line: holoreceptor transactivation assay, RXRγ. The assay is classed as cell-based. The following applies: for EC50: holoreceptor transactivation, RXRγ, read-out: RXR Trans. EC50 γ; for Emax: relative to 10^-6 M cyclopropyl penta-2,4-dienoic acid reference (RXRs), read-out: % efficacy (RXRγ transactivation).
Description: as §1, §2, §3

The target of assay [3] is T3, RARα (Homo sapiens, UniProt P10276).
T3 sequence (P10276 1-462): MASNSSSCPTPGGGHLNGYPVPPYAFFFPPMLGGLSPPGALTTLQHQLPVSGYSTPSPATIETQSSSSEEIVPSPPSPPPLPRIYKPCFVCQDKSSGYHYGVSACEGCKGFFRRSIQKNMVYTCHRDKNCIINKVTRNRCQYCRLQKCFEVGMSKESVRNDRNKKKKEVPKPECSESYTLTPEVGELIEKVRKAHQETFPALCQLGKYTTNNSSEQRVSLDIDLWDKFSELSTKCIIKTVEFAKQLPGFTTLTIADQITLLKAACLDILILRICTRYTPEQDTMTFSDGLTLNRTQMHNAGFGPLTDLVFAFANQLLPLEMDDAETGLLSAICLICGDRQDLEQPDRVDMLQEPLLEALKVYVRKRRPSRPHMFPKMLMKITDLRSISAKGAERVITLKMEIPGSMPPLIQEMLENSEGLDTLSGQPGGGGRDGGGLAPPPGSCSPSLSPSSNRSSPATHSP
The experiment in a line: ligand binding assay, RARα.
Description: as §1, §2, §3

Read-outs that look alike come from different tables or passages of the source.

With `CCN(c1ccc(C(=O)O)cc1)c1cc(C)c2c(c1)C(C)(C)CO2` [Compound 27, 4-[Ethyl-(3,3,7-trimethyl-2,3-dihydro-benzofuran-5-yl)-amino]-benzoic acid], the 50% effective concentration (EC50) in assay [1] and in assay [2] was > 1 µM in each case. Besides, the Ki in assay [3] (read-out: RAR Bind. Ki α) was 30 µM.

For `CCc1cc(N(CC)c2ccc(C(=O)O)cc2)cc2c1OCC2(C)C` [Compound 29, 4-[Ethyl-(3,3-dimethyl-7-ethyl-2,3-dihydro-benzofuran-5-yl)-amino]-benzoic acid], the EC50 in assay [1] came to 0.8 µM; in assay [2], 0.692 µM. Also, the results for the Emax in assay [1] and in assay [2] were 70% and 130%, respectively. In assay [3] (read-out: RAR Bind. Ki α), the Ki was > 10 µM.

As to `CC(C)c1cc(N(C)c2ccc(C(=O)O)cc2)cc2c1OCC2(C)C` [Compound 30, 4-[Methyl-(3,3-dimethyl-7-isopropyl-2,3-dihydro-benzofuran-5-yl)-amino]-benzoic acid], the EC50 in assay [1] and in assay [2] was > 1 µM throughout. Further, the Emax in assay [1] came to 10%; in assay [2] it was 70%. Besides, the Ki in assay [3] (read-out: RAR Bind. Ki α) was 16 µM.

On to `CCN(c1ccc(C(=O)O)cc1)c1cc(C(C)C)c2c(c1)C(C)(C)CO2` [Compound 31, 4-[Ethyl-(3,3-dimethyl-7-isopropyl-2,3-dihydro-benzofuran-5-yl)-amino]-benzoic acid], for which the EC50 was determined as 1 µM in assay [1] and 0.085 µM in assay [2]. Further, the Emax amounted to 75% in assay [1] and 125% in assay [2]. The Ki in assay [3] (read-out: RAR Bind. Ki α) came to 25 µM.

With `CCN(c1ccc(C(=O)O)cc1)c1cc(C(C)(C)C)c2c(c1)C(C)(C)CO2` [Compound 32, 4-[Ethyl-(7-t-butyl-3,3-dimethyl-2,3-dihydro-benzofuran-5-yl)-amino]-benzoic acid], in assay [1], the EC50 stood at 1 µM and the Emax amounted to 50%. Also, in assay [2], the EC50 turned out to be 0.23 µM and the Emax came to 122%. Moreover, the inhibition constant (Ki) in assay [3] (read-out: RAR Bind. Ki α) was > 1 µM.

`CCc1cc(N(c2ccc(C(=O)O)cc2)C(C)C)cc2c1OCC2(C)C` [Compound 42, 4-[Isopropyl-(3,3-dimethyl-7-ethyl-2,3-dihydro-benzofuran-5-yl)-amino]-benzoic acid]: in assay [1], the EC50 was > 1 µM and the Emax worked out at 30%. Further, in assay [2], the EC50 was determined as 0.511 µM and the Emax was determined as 132%. In addition, the Ki in assay [3] (read-out: RAR Bind. Ki α) is > 10 µM.

In the case of `CC(C)c1cc(N(c2ccc(C(=O)O)cc2)C(C)C)cc2c1OCC2(C)C` [Compound 43], the results for the EC50 in assay [1] and in assay [2] were 0.058 µM and 0.019 µM, respectively. In addition, the Emax in assay [1] is 58%; in assay [2], 108%. Besides, the inhibition constant Ki in assay [3] (read-out: RAR Bind. Ki α) is > 10 µM.

With `CC(C)N(c1ccc(C(=O)O)cc1)c1cc(C(C)(C)C)c2c(c1)C(C)(C)CO2` [Compound 44, 4-[Isopropyl-(7-t-butyl-3,3-dimethyl-2,3-dihydro-benzofuran-5-yl)-amino]-benzoic acid], in assay [1], the 50% effective concentration (EC50) turned out to be 0.171 µM and the Emax came out at 33%. Further, in assay [2], the EC50 came out at 0.02 µM and the Emax came to 48%. Moreover, the Ki in assay [3] (read-out: RAR Bind. Ki α) is > 1 µM.

As for `Cc1c(N(c2ccc(C(=O)O)cc2)C(C)C)cc2c(c1C(C)(C)C)OCC2(C)C` [Compound 73, 4-[Isopropyl-(7-t-butyl-3,3,6-trimethyl-2,3-dihydro-benzofuran-5-yl)-amino]-benzoic acid], in assay [1], the EC50 is 0.071 µM and the Emax is 92%. Also, in assay [2], the EC50 is 0.017 µM and the Emax stood at 97%. For the same compound, the Ki in assay [3] (read-out: RAR Bind. Ki α) was found to be 12 µM.

As for `CCN(c1ccc(C(=O)O)cc1)c1ccc2c(c1)C(C)(C)OC2(C)C` [Compound 83, 4-[Ethyl-(1,1,3,3-tetramethyl-1,3-dihydro-isobenzofuran-5-yl)-amino]-benzoic acid], in assay [1], the EC50 turned out to be 1 µM and the Emax is 100%. In assay [2], the EC50 was 0.063 µM and the Emax is 140%. The Ki in assay [3] (read-out: RAR Bind. Ki α) is > 10 µM.

Consider `CCCN(c1ccc(C(=O)O)cc1)c1ccc2c(c1)C(C)(C)OC2(C)C` [Compound 84, 4-[n-Propyl-(1,1,3,3-tetramethyl-1,3-dihydro-isobenzofuran-5-yl)-amino]-benzoic acid], for which the figures for the EC50 in assay [1] and in assay [2] were 1 µM and 0.051 µM, respectively. The Emax in assay [1] amounted to 184%; in assay [2] it was 124%. For the same compound, the inhibitory constant (Ki) in assay [3] (heading: RAR Bind. Ki α) is > 10 µM.

For the compound `CCCCN(c1ccc(C(=O)O)cc1)c1ccc2c(c1)C(C)(C)OC2(C)C` [Compound 85, 4-[n-Butyl-(1,1,3,3-tetramethyl-1,3-dihydro-isobenzofuran-5-yl)-amino]-benzoic acid], the EC50 came out at 1 µM in assay [1] and 0.7 µM in assay [2]. The Emax in assay [1] was 60%; in assay [2], 197%. The Ki in assay [3] (read-out: RAR Bind. Ki α) was > 10 µM.

As to `CC(C)N(c1ccc(C(=O)O)cc1)c1ccc2c(c1)C(C)(C)OC2(C)C` [Compound 87, 4-[i-Propyl-(1,1,3,3-tetramethyl-1,3-dihydro-isobenzofuran-5-yl)-amino]-benzoic acid], in assay [1], the half-maximal effective concentration (EC50) was determined as 1 µM and the Emax turned out to be 65%. Also, in assay [2], the EC50 worked out at 0.765 µM and the Emax was 134%. For the same compound, in assay [3] (read-out: RAR Bind. Ki α), the inhibition constant Ki is > 10 µM.

One may read the EC50 as the midpoint of the concentration-response curve. Broadly, the Ki is the dissociation constant of the complex between target and ligand, obtained from inhibition or displacement.
